# BindingDB's records for doi:10.1021/jm9600813 (National Institute of Diabetes and Digestive and Kidney …, 1996)
# Molecular target: Sigma non-opioid intracellular receptor 1 (Cavia porcellus) (UniProt Q60492)
# Assay: Displacement of [3H](+)-pentazocine from Sigma opioid receptor type 1 in guinea pig brain membrane
# Chain of Sigma non-opioid intracellular receptor 1 (Cavia porcellus) (Q60492 whole entry, looked up): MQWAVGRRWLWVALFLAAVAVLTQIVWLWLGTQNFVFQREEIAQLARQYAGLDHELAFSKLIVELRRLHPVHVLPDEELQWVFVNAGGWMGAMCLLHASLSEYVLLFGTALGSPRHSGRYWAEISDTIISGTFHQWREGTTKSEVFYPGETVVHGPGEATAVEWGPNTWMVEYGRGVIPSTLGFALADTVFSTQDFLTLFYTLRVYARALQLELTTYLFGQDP
row,SMILES,Ki [µM]
1,CN(CCc1ccc([N+](=O)[O-])cc1)CCN1CCCC1 [Methyl-[2-(4-nitro-phenyl)-ethyl]-(2-pyrrolidin-1-yl-ethyl)-amine],0.0043
2,COc1cccc(CCN(C)CCN2CCCC2)c1 [[2-(3-Methoxy-phenyl)-ethyl]-methyl-(2-pyrrolidin-1-yl-ethyl)-amine],0.0238
3,CN(CCc1ccccc1N)CCN1CCCC1 [2-{2-[Methyl-(2-pyrrolidin-1-yl-ethyl)-amino]-ethyl}-phenylamine],0.291
4,COc1cccc(CC(=O)N(C)CCN2CCCC2)c1 [2-(3-Methoxy-phenyl)-N-methyl-N-(2-pyrrolidin-1-yl-ethyl)-acetamide],3.1
5,CN(CCc1ccc(N)cc1)CCN1CCCC1 [4-{2-[Methyl-(2-pyrrolidin-1-yl-ethyl)-amino]-ethyl}-phenylamine],0.276
6,COc1ccc(CCN(C)CCN2CCCC2)cc1 [[2-(4-Methoxy-phenyl)-ethyl]-methyl-(2-pyrrolidin-1-yl-ethyl)-amine],0.0303
7,COc1ccc(CC(=O)N(C)CCN2CCCC2)cc1 [2-(4-Methoxy-phenyl)-N-methyl-N-(2-pyrrolidin-1-yl-ethyl)-acetamide],2.22
8,CN(CCN1CCCC1)C(=O)Cc1ccccc1[N+](=O)[O-] [N-Methyl-2-(2-nitro-phenyl)-N-(2-pyrrolidin-1-yl-ethyl)-acetamide],0.736
9,CN(CCN1CCCC1)C(=O)Cc1cccc([N+](=O)[O-])c1 [N-Methyl-2-(3-nitro-phenyl)-N-(2-pyrrolidin-1-yl-ethyl)-acetamide],1.85
10,CN(CCN1CCCC1)C(=O)Cc1ccc([N+](=O)[O-])cc1 [N-Methyl-2-(4-nitro-phenyl)-N-(2-pyrrolidin-1-yl-ethyl)-acetamide],0.869

# The next lines start with the values.
row,Ki [µM],SMILES
1,0.0077,CN(CCc1ccccc1[N+](=O)[O-])CCN1CCCC1 [Methyl-[2-(2-nitro-phenyl)-ethyl]-(2-pyrrolidin-1-yl-ethyl)-amine]
2,0.0157,COc1ccccc1CCN(C)CCN1CCCC1 [[2-(2-Methoxy-phenyl)-ethyl]-methyl-(2-pyrrolidin-1-yl-ethyl)-amine]
3,0.0064,CN(CCc1cccc([N+](=O)[O-])c1)CCN1CCCC1 [Methyl-[2-(3-nitro-phenyl)-ethyl]-(2-pyrrolidin-1-yl-ethyl)-amine]
4,0.579,CN(CCc1cccc(N)c1)CCN1CCCC1 [3-{2-[Methyl-(2-pyrrolidin-1-yl-ethyl)-amino]-ethyl}-phenylamine]
